Target: T1, human GnRH receptor (Homo sapiens, UniProt P30968)
T1 construct: expressed in transfected cells; host or cells: CHO (Chinese Hamster Ovary) cells, membrane fraction
T1 sequence (P30968 1-328): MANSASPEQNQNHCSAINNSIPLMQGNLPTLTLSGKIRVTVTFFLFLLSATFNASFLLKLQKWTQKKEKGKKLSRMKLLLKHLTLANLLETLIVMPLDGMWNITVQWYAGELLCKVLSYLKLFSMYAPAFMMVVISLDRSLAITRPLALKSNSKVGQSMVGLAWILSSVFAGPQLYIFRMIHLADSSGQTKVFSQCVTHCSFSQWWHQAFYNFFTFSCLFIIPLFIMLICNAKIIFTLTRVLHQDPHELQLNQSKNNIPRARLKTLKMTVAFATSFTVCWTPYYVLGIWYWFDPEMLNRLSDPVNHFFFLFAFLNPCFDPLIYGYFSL
Assay: Test for inhibition of ^125 I-leuprorelin binding to human GnRH receptor
Settings: membrane fraction of CHO cells expressing human GnRH receptors, 25° C., 60 minutes, read-out: Binding Inhibitory Activity (IC50, μM) for human GnRH receptor
Experimental: (A) Preparation of ^125 I-leuprorelin
Ten μl of a 3×10^-4 M aqueous solution of leuprorelin and 10μl of 0.01 mg/ml lactoperoxidase in 0.1M Hepes buffer (pH7.4) were put in a tube, to which was added 10 μl of an Na^125 I solution (37 MBq). The mixture was stirred, to which was added 10 μl of 0.001% H2 O2, followed by allowing the reaction to proceed for 20 minutes at room temperature. To the reaction mixture was added 700 μl of a 0.05% TFA solution to stop the reaction. The product of was purified by means of a reverse-phase HPLC. Conditions of HPLC were as follows:
(D) Preparation of membrane fraction of CHO (Chinese Hamster Ovary) cells containing human GnRH receptors
CHO cells (10^9) expressing human GnRH receptors were suspended in a phosphate-buffered saline supplemented with 5 mM EDTA. The suspension was subjected to centrifugal separation for 5 minutes at 100×g. To the pellet of cells was added 10 ml of a homogenate buffer for cells (10 mM NaHCO3, 5 mM EDTA, pH 7.5), which was homogenated by using a Polytron homogenizer. Centrifugal separation was conducted for 15 minutes at 400×g. The supernatant was taken into an ultracentrifugal tube, which was subjected to centrifuge for one hour at 100,000×g to give precipitate of the membrane fraction. The precipitate was suspended in 2 ml of the assay buffer, which was centrifuged for one hour at 100,000×g. The membrane fraction recovered as precipitate was again suspended in 20 ml of the assay buffer, which was distributed to vials and stored at -80° C. until used.
(E) Determination of inhibitory rate of ^125 I-leuprorelin binding
In the cases of using rat and human pituitary membrane fractions prepared in (B) and (D), they were respectively diluted with the assay buffer to 200 μg/ml and 188 μl each was distributed to tubes. In the case of using bovine pituitary membrane fraction prepared in (C), it was diluted with the assay buffer to 750 μg/ml and 188 μl each was distributed into tubes. In the case where the membrane fraction of anterior lobes of rat pituitary gland was used, 2 μl of a 0.1 mM compound dissolved in 60% DMSO (dimethylsulfoxide) and 10 μl of 38 nM ^125 I-leuprorelin were added thereto simultaneously. In the case where the membrane fraction of anterior lobes of bovine pituitary gland and the membrane fraction derived from the CHO cells expressing human GnRH receptors were used, 2 μl of a 2 mM compound dissolved in 60% DMSO and 10 μl of 38 nM ^125 I-leuproprelin were added simultaneously. For determining the maximum binding amount, a solution for reaction supplemented with 2 μl of 60% DMSO and 10 μl of 38 nM ^125 I-leuprorelin was prepared. And, for determining the amount of non-specific binding, a solution for reaction supplemented with 2 μl of 100 μM leuprorelin dissolved in 60% DMSO and 10 μl of 38 nM ^125 I-leuprorelin were also prepared simultaneously.
In the cases where membrane fractions of anterior lobes of rat and bovine pituitary were used, reaction was allowed to proceed at 4° C. for 90 minutes, while in the case where the membrane fraction derived from the CHO cells expressing human GnRH receptor was used, reaction was allowed to proceed at 25° C. for 60 minutes. The reaction mixtures were respectively subjected to filtration under sucking with Whatman glass filter (GF-F) processed with polyethyleneimine. After completing the filtration, radioactivity of the ^125 I-leuprorelin remaining on the filter paper was measured with a γ-counter.
By calculation of (TB-SB)/(TB-NSB)×100 (SB: radioactivity obtained when a compound was added, TB: radioactivity for the maximum binding, NSB: radioactivity for the non-specific binding), the binding inhibitory rate of each test compound was determined. Besides, the inhibitory rates were determined by changing the concentrations of test compounds, and the concentration of a test compound inhibiting the specific binding by 50% (IC50 value) was calculated by way of Hill plot.

| SMILES | IC50 |
| --- | --- |
| O=C1c2ccc([N+](=O)[O-])cc2C(=O)N1CC(=O)N1c2ccccc2N(Cc2ccccc2)C(=O)[C@H]2CCC[C@H]21 (relative stereo) [compound 49] | 2 µM |
| O=C1c2ccccc2C(=O)N1CCC(=O)N1c2ccccc2N(Cc2ccccc2)C(=O)[C@H]2CCC[C@H]21 (relative stereo) [compound 50] | 24 µM |
| O=C1c2ccccc2C(=O)N1CCCC(=O)N1c2ccccc2N(Cc2ccccc2)C(=O)[C@H]2CCC[C@H]21 (relative stereo) [compound 51] | 12 µM |
| O=C1c2ccc(Cl)cc2C(=O)N1CC(=O)N1c2ccccc2N(Cc2ccccc2)C(=O)[C@H]2CCC[C@H]21 (relative stereo) [compound 69] | 2 µM |
| O=C1c2ccc(F)cc2C(=O)N1CC(=O)N1c2ccccc2N(Cc2ccccc2)C(=O)[C@H]2CCC[C@H]21 (relative stereo) [compound 70] | 2 µM |
| Cc1ccc2c(c1)C(=O)N(CC(=O)N1c3ccccc3N(Cc3ccccc3)C(=O)[C@H]3CCC[C@H]31)C2=O (relative stereo) [compound 71] | 9 µM |
| O=C1c2cccc([N+](=O)[O-])c2C(=O)N1CC(=O)N1c2ccccc2N(Cc2ccccc2)C(=O)[C@H]2CCC[C@H]21 (relative stereo) [compound 72] | 6 µM |
| O=C1c2cccc(O)c2C(=O)N1CC(=O)N1c2ccccc2N(Cc2ccccc2)C(=O)[C@H]2CCC[C@H]21 (relative stereo) [compound 73] | 9 µM |
| O=C1c2cccc3cccc(c23)C(=O)N1CC(=O)N1c2ccccc2N(Cc2ccccc2)C(=O)[C@H]2CCC[C@H]21 (relative stereo) [compound 75] | 3 µM |
| O=C1Cc2ccccc2C(=O)N1CC(=O)N1c2ccccc2N(Cc2ccccc2)C(=O)[C@H]2CCC[C@H]21 (relative stereo) [compound 77] | 5 µM |
| O=C1c2cccnc2C(=O)N1CC(=O)N1c2ccccc2N(Cc2ccccc2)C(=O)[C@H]2CCC[C@H]21 (relative stereo) [compound 78] | 5 µM |
| O=C1[C@H]2CC=CC[C@H]2C(=O)N1CC(=O)N1c2ccccc2N(Cc2ccccc2)C(=O)[C@H]2CCC[C@H]21 (relative stereo) [compound 80] | 9 µM |
| COc1cc(OC)cc(C(=O)NCC(=O)N2c3ccccc3N(Cc3ccccc3)C(=O)[C@H]3CCC[C@H]32)c1 (relative stereo) [compound 87] | 16 µM |
| Nc1cccc2c1C(=O)N(CC(=O)N1c3ccccc3N(Cc3ccccc3)C(=O)[C@H]3CCC[C@H]31)C2=O (relative stereo) [compound 106] | 5 µM |
| COC(=O)c1ccc2c(c1)C(=O)N(CC(=O)N1c3ccccc3N(Cc3ccccc3)C(=O)[C@H]3CCC[C@H]31)C2=O (relative stereo) [compound 108] | 8 µM |
| CC(=O)N(CC(=O)N1c2ccccc2N(Cc2ccccc2)C(=O)[C@H]2CCC[C@H]21)C(=O)c1ccccc1 (relative stereo) [compound 109] | 6 µM |
| O=C1c2ccccc2C(=O)N1CC(=O)N1c2ccccc2N(Cc2cccc3ccccc23)C(=O)[C@H]2CCC[C@H]21 (relative stereo) [compound 113] | 1 µM |
| O=C1c2ccccc2C(=O)N1CC(=O)N1c2ccccc2N(Cc2ccc3ccccc3c2)C(=O)[C@H]2CCC[C@H]21 (relative stereo) [compound 114] | 0.6 µM |
| O=C1c2ccccc2C(=O)N1CC(=O)N1c2ccccc2N(Cc2ccccn2)C(=O)[C@H]2CCC[C@H]21 (relative stereo) [compound 118] | 2 µM |

| SMILES | IC50 |
| --- | --- |
| O=C1c2ccccc2C(=O)N1CC(=O)N1c2ccccc2N(Cc2cccnc2)C(=O)[C@H]2CCC[C@H]21 (relative stereo) [compound 119] | 10 µM |
| O=C1c2ccccc2C(=O)N1CC(=O)N1c2ccccc2N(Cc2ccncc2)C(=O)[C@H]2CCC[C@H]21 (relative stereo) [compound 120] | 4 µM |
| O=C1c2ccncc2C(=O)N1CC(=O)N1c2ccccc2N(Cc2ccccc2)C(=O)[C@H]2CCC[C@H]21 (relative stereo) [compound 128] | 15 µM |
| O=C1Cc2ccccc2N1CC(=O)N1c2ccccc2N(Cc2ccccc2)C(=O)[C@H]2CCC[C@H]21 (relative stereo) [compound 136] | 15 µM |
| O=C1[C@H]2CCC[C@H]2N(C(=O)CNCc2ccccc2)c2ccccc2N1Cc1ccccc1 (relative stereo) [compound 138] | 14 µM |
| CN(CC(=O)N1c2ccccc2N(Cc2ccccc2)C(=O)[C@H]2CCC[C@H]21)Cc1ccccc1 (relative stereo) [compound 139] | 11 µM |
| O=C(c1ccccc1)N(CC(=O)N1c2ccccc2N(Cc2ccccc2)C(=O)[C@H]2CCC[C@H]21)Cc1ccccc1 (relative stereo) [compound 141] | 14 µM |
| O=C1c2ccccc2C(=O)N1CC(=O)N1c2ccccc2N(Cc2ccccc2)C(=O)[C@H]2CCCC[C@H]21 (relative stereo) [compound 168] | 3 µM |
| O=C1c2ccccc2C(=O)N1CC(=O)N1c2ccccc2N(Cc2ccc(Cl)cc2)C(=O)[C@H]2CCC[C@H]21 (relative stereo) [compound 169] | 2 µM |
| O=C1C2=C(CCCC2)C(=O)N1CC(=O)N1c2ccccc2N(Cc2cccc3ccccc23)C(=O)[C@H]2CCC[C@H]21 (relative stereo) [compound 170] | 0.6 µM |
| O=C1C2=C(CCCC2)C(=O)N1CC(=O)N1c2ccccc2N(Cc2ccc3ccccc3c2)C(=O)[C@H]2CCC[C@H]21 (relative stereo) [compound 171] | 0.3 µM |
| CC1=C(C)C(=O)N(CC(=O)N2c3ccccc3N(Cc3ccccc3)C(=O)[C@H]3CCC[C@H]32)C1=O (relative stereo) [compound 173] | 7 µM |
| O=C1C2=C(CCC2)C(=O)N1CC(=O)N1c2ccccc2N(Cc2ccccc2)C(=O)[C@H]2CCC[C@H]21 (relative stereo) [compound 176] | 2 µM |
| O=C1c2ccccc2C(=O)N1CC(=O)N1c2ccccc2N(Cc2ccc(-c3ccccc3)cc2)C(=O)[C@H]2CCC[C@H]21 (relative stereo) [compound 182] | 2 µM |
| O=C1c2ccccc2C(=O)N1CC(=O)N1c2ccccc2N(Cc2ccc3ccccc3n2)C(=O)[C@H]2CCC[C@H]21 (relative stereo) [compound 184] | 0.8 µM |
| O=C1c2ccccc2C(=O)N1CC(=O)N1c2ccccc2N(Cc2ccc(F)cc2)C(=O)[C@H]2CCC[C@H]21 (relative stereo) [compound 191] | 2 µM |
| O=C1c2ccccc2C(=O)N1CC(=O)N1c2ccccc2N(Cc2ccccc2F)C(=O)[C@H]2CCC[C@H]21 (relative stereo) [compound 194] | 3 µM |
| O=C1c2ccccc2C(=O)N1CC(=O)N1c2ccccc2N(Cc2ccc([N+](=O)[O-])cc2)C(=O)[C@H]2CCC[C@H]21 (relative stereo) [compound 195] | 0.5 µM |
| O=C1c2ccccc2C(=O)N1CC(=O)N1c2ccccc2N(Cc2cccc([N+](=O)[O-])c2)C(=O)[C@H]2CCC[C@H]21 (relative stereo) [compound 209] | 2 µM |
